For eleven compounds, TGI and GI50 results are on record in PubChem BioAssay (NCI).

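All cell lines were grown in 96-well plates and treated with compound for 48 hours. GI50: concentration for 50% inhibition of growth. TGI is the concentration that stops growth completely.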 A value given as a limit tells only on which side of the number the result lay.

Some test systems named below: UACC-62 melanoma; HCC-2998 colon; NCI-H522 lung; SK-MEL-5 melanoma; SNB-75 CNS; OVCAR-8 ovarian; CCRF-CEM leukemia; TK-10 renal; SW-620 colon; NCI-H226 lung.
What all share (assay): NCI tumour cell line growth inhibition, 48 h

For `COC1OC(COCc2ccc(Cl)cc2)C(OCc2ccc(Cl)cc2)C1O` (centres undefined), the TGI with UACC-62 melanoma stood at 31.9 µM; in the assay with HCC-2998 colon, 32.6 µM; in the assay on NCI-H522 lung, 27.5 µM; in the assay with SK-MEL-5 melanoma, 28.6 µM; in the assay on SNB-75 CNS, 32.8 µM; with OVCAR-8 ovarian it was 69.7 µM. The TGI was determined as 46.7 µM in the assay on CCRF-CEM leukemia, 67.4 µM in the assay on TK-10 renal and 29.6 µM in the assay with SW-620 colon.

In the case of `Oc1c(Cl)cc(C(c2cc(Cl)c(O)c(Cl)c2)C(c2cc(Cl)c(O)c(Cl)c2)c2cc(Cl)c(O)c(Cl)c2)cc1Cl`, the GI50 with UACC-62 melanoma was 3000 nM; with HCC-2998 colon it was 3.79 µM; in the assay with NCI-H522 lung, 6360 nM; in the assay with SK-MEL-5 melanoma, 2890 nM; in the assay on SNB-75 CNS it was 3080 nM; in the assay on OVCAR-8 ovarian, 4110 nM. The results for the GI50 in the assay on TK-10 renal, in the assay with NCI-H226 lung and in the assay with SW-620 colon were 7.05 µM, 25.7 µM and 6.6 µM, respectively. The TGI in the assay on UACC-62 melanoma was 12.5 µM; in the assay on HCC-2998 colon, 14.3 µM; in the assay on NCI-H522 lung it was 47.5 µM; in the assay with SK-MEL-5 melanoma, 14.8 µM; in the assay on SNB-75 CNS it was 7.87 µM; in the assay with OVCAR-8 ovarian, 22.3 µM. Besides, the TGI amounted to 21.5 µM in the assay on TK-10 renal and 23 µM with SW-620 colon.

Turning to `c1ccc2c(c1)nnn1c3cnccc3nc21`, the TGI with UACC-62 melanoma is over 100 µM; in the assay with HCC-2998 colon it was over 100 µM; in the assay with NCI-H522 lung it was 28.4 µM; in the assay on SK-MEL-5 melanoma, over 100 µM; in the assay on SNB-75 CNS, over 100 µM; with OVCAR-8 ovarian, over 100 µM. In addition, the values for the TGI in the assay with CCRF-CEM leukemia, in the assay on TK-10 renal and in the assay with SW-620 colon were 44.3 µM, 94.7 µM and over 100 µM, respectively.

On to `CCCCN(CCCC)c1cc(C(=O)CCCCCN)c2ccccc2n1`, for which the GI50 in the assay on UACC-62 melanoma is 1660 nM; in the assay on HCC-2998 colon it was 1.76 µM; with NCI-H522 lung, 1910 nM; with SK-MEL-5 melanoma, 1580 nM; with SNB-75 CNS, 1710 nM; in the assay on OVCAR-8 ovarian, 2030 nM. Moreover, the results for the GI50 in the assay on CCRF-CEM leukemia and with TK-10 renal were 3200 nM and 1.94 µM, respectively. Also, the TGI in the assay with UACC-62 melanoma came out at 3.07 µM; with HCC-2998 colon it was 3.21 µM; in the assay with NCI-H522 lung, 3.52 µM; in the assay on SK-MEL-5 melanoma it was 2.92 µM; in the assay with SNB-75 CNS it was 3.21 µM; with OVCAR-8 ovarian, 4.61 µM. Besides, the TGI with CCRF-CEM leukemia was found to be 7.32 µM; in the assay with TK-10 renal, 3.5 µM.

For the compound `O=C(O)c1ccc([N+](=O)[O-])c(P(=O)(O)O)c1`, the TGI with UACC-62 melanoma, in the assay with SK-MEL-5 melanoma, with OVCAR-8 ovarian, in the assay with TK-10 renal, with NCI-H226 lung and with SW-620 colon was over 100 µM each time.

`CCCCCCCCC(=O)CCCCCCCCC(=O)O`: the TGI is 54.6 µM in the assay with UACC-62 melanoma; 85 µM in the assay on NCI-H522 lung; 29.1 µM in the assay on SK-MEL-5 melanoma; over 100 µM in the assay with SNB-75 CNS; 32.4 µM in the assay on OVCAR-8 ovarian; over 100 µM in the assay with CCRF-CEM leukemia. Also, the TGI is over 100 µM in the assay with TK-10 renal, 63.6 µM in the assay with NCI-H226 lung and over 100 µM in the assay with SW-620 colon.

On to `O=C(Nc1cccc(-n2cc(-c3ccncc3)c(-c3cc(O)cc(Cl)c3)n2)c1)Nc1ccc(Cl)c(Cl)c1`, for which the GI50 in the assay on UACC-62 melanoma is 1690 nM; in the assay with HCC-2998 colon, 2.93 µM; in the assay on NCI-H522 lung it was 1100 nM; in the assay on SK-MEL-5 melanoma, 1620 nM; with SNB-75 CNS, 1380 nM; in the assay on OVCAR-8 ovarian it was 2020 nM. In addition, the GI50 with NCI-H226 lung is 2.28 µM; in the assay on SW-620 colon, 3.22 µM. Besides, the TGI in the assay with UACC-62 melanoma worked out at 3.76 µM; in the assay on HCC-2998 colon it was 8.99 µM; in the assay with NCI-H522 lung, 3.14 µM; in the assay with SK-MEL-5 melanoma, 3.04 µM; in the assay with SNB-75 CNS it was 4.82 µM; in the assay on OVCAR-8 ovarian it was 5.06 µM. The TGI was 7.16 µM with NCI-H226 lung and 9.97 µM in the assay with SW-620 colon.

Regarding `CCOC(=O)CC(=O)N(c1ccc(OC)cc1)C(C(=O)OC)c1ccccc1` (centres undefined), the TGI in the assay on UACC-62 melanoma, with NCI-H522 lung, in the assay with SK-MEL-5 melanoma, with SNB-75 CNS, in the assay on OVCAR-8 ovarian and in the assay on CCRF-CEM leukemia was over 100 µM in each case. Moreover, the TGI with TK-10 renal and in the assay with SW-620 colon was over 100 µM each time.

For `Cc1ccc(NC(=O)C2C(=O)C(=O)N(c3ccc(C)cc3)C2=O)cc1` (centres undefined), the TGI in the assay with UACC-62 melanoma, in the assay with HCC-2998 colon, with NCI-H522 lung, in the assay with SK-MEL-5 melanoma, in the assay with OVCAR-8 ovarian and in the assay on CCRF-CEM leukemia was over 100 µM throughout. Moreover, the TGI in the assay on TK-10 renal and in the assay with SW-620 colon was over 100 µM each time.

For `CCCCC(SC(=S)N(CC)CC)C(=O)Nc1nc(CC(=O)OCC)cs1` (centres undefined), the GI50 with UACC-62 melanoma was 29800 nM; with HCC-2998 colon it was 59.3 µM; in the assay on NCI-H522 lung, 13300 nM; with SK-MEL-5 melanoma it was 13500 nM; with SNB-75 CNS, 67000 nM; with OVCAR-8 ovarian, 41400 nM. Besides, the values for the GI50 in the assay on TK-10 renal, in the assay on NCI-H226 lung and in the assay on SW-620 colon were 82.9 µM, 58 µM and 38 µM, respectively. Besides, the TGI in the assay with UACC-62 melanoma was over 100 µM; with HCC-2998 colon, over 100 µM; in the assay with NCI-H522 lung, over 100 µM; in the assay with SK-MEL-5 melanoma, 30.9 µM; in the assay with SNB-75 CNS, over 100 µM; in the assay with OVCAR-8 ovarian, over 100 µM. Besides, the TGI with TK-10 renal, in the assay with NCI-H226 lung and in the assay on SW-620 colon was over 100 µM each time.

On to `CCC[CH2][Sn]([CH2]CCC)([O]C(=O)c1cc(OC)c(OC)c(OC)c1)[O]C(=O)c1cc(OC)c(OC)c(OC)c1`, for which the GI50 with UACC-62 melanoma was 892 nM; in the assay on NCI-H522 lung, 191 nM; with SK-MEL-5 melanoma it was 1490 nM; with SNB-75 CNS it was 169 nM; with OVCAR-8 ovarian, 1500 nM; in the assay on CCRF-CEM leukemia, 250 nM. Also, the GI50 is 1.58 µM with TK-10 renal, 1.21 µM with NCI-H226 lung and 0.973 µM in the assay on SW-620 colon. Further, the TGI in the assay with UACC-62 melanoma turned out to be 2.12 µM; in the assay with NCI-H522 lung it was 0.348 µM; in the assay on SK-MEL-5 melanoma it was 2.97 µM; in the assay with SNB-75 CNS it was 1.29 µM; in the assay with OVCAR-8 ovarian it was 3.37 µM; in the assay with CCRF-CEM leukemia, 0.862 µM. For the same compound, the TGI in the assay on TK-10 renal came to 3.02 µM; in the assay with NCI-H226 lung, 2.59 µM; in the assay with SW-620 colon it was 2.72 µM.
